This is an account of results in PubChem BioAssay AID449756 (Broad Institute, 2010).

In general, AC50 refers to the midpoint of the concentration-response curve, whichever way the signal moves.

Records with an inconclusive call do not appear.

In this assay the test system is INS-1E rat beta cells, cytokine apoptosis rescue, ATP luminescence 48 h. Put plainly: INS-1E survival protection against cytokine death – cell-based, luminescence, retest, dose response (AID 449756).
For the molecule `C#CCOCCOCCOCCNc1nc(N2CCN(C(=O)CCCCCCCCCCNC(=O)[C@H]([C@@H](C)CC)n3cc(CCCCCN)nn3)CC2)nc(N2CCN(C(=O)CCCCCCCCCCNC(=O)[C@@H]([C@H](C)O)n3cc(C)nn3)CC2)n1`, the AC50 is 5.76 µM.

As for `C#CCOCCOCCOCCNc1nc(N2CCN(C(=O)CCCCCCCCCCNC(=O)[C@H]([C@@H](C)CC)n3cc(CCCCN=C(N)N)nn3)CC2)nc(N2CCN(C(=O)CCCCCCCCCCNC(=O)[C@H](CO)n3cc(CCCCCN)nn3)CC2)n1`, the concentration at half-maximal activity (AC50) is 6.94 µM.

With `C=C(C=O)C[C@@H]1C[C@H](O)C2OC3C[C@]4(C)OC5/C=C\CC6OC7C(CC=CCC6OC5CCCC4OC3CC2O1)OC1CC2OC3CC(=O)OC3C[C@@H](C)C[C@@]2(C)OC1C[C@@H]7C` (stereo not given in full), the half-maximal activity concentration (AC50) was 2.17 µM.

Take `C#CCOCCOCCOCCNc1nc(N2CCN(C(=O)CCCCCCCCCCNC(=O)[C@@H](CCSC)n3cc(CCO)nn3)CC2)nc(N2CCN(C(=O)CCCCCCCCCCNC(=O)[C@H]([C@@H](C)CC)n3cc(CCCCCN)nn3)CC2)n1`: the AC50 was 3.98 µM.

In the case of `C#CCOCCOCCOCCNc1nc(N2CCN(C(=O)CCCCCCCCCCNC(=O)Cn3cc(CCCCCN)nn3)CC2)nc(N2CCN(C(=O)CCCCCCCCCCNC(=O)[C@H]([C@@H](C)CC)n3cc(CCCCN=C(N)N)nn3)CC2)n1`, the AC50 was 6.89 µM.

On to `C#CCOCCOCCOCCNc1nc(N2CCN(C(=O)CCCCCCCCCCNC(=O)[C@H]([C@@H](C)CC)n3cc(CCCCN=C(N)N)nn3)CC2)nc(N2CCN(C(=O)CCCCCCCCCCNC(=O)[C@H](CCCCN)n3cc(C)nn3)CC2)n1`, for which the AC50 was 4.96 µM.

On to `C#CCOCCOCCOCCNc1nc(N2CCN(C(=O)CCCCCCCCCCNC(=O)[C@H](CCCCN)n3cc(C)nn3)CC2)nc(N2CCN(C(=O)CCCCCCCCCCNC(=O)[C@@H]([C@H](C)CC)n3cc(CCCCCN)nn3)CC2)n1`, for which the AC50 is 5.59 µM.

For the molecule `C#CCOCCOCCOCCNc1nc(N2CCN(C(=O)CCCCCCCCCCNC(=O)[C@H](CCCCN)n3cc(C)nn3)CC2)nc(N2CCN(C(=O)CCCCCCCCCCNC(=O)[C@H](CCCN=C(N)N)n3cc(C[C@@H](C)CC)nn3)CC2)n1`, the AC50 was 6.66 µM.

For the molecule `C#CCOCCOCCOCCNc1nc(N2CCN(C(=O)CCCCCCCCCCNC(=O)[C@H]([C@@H](C)CC)n3cc(CCCCCN)nn3)CC2)nc(N2CCN(C(=O)CCCCCCCCCCNC(=O)[C@H]([C@@H](C)CC)n3cc(CCCCN=C(N)N)nn3)CC2)n1`, the AC50 is 4.66 µM.

For `C#CCOCCOCCOCCNc1nc(N2CCN(C(=O)CCCCCCCCCCNC(=O)[C@H](CCCCN)n3cc(CCO)nn3)CC2)nc(N2CCN(C(=O)CCCCCCCCCCNC(=O)[C@H](CCCCN)n3cc(C[C@@H](C)CC)nn3)CC2)n1`, the concentration at half-maximal activity (AC50) is 6.27 µM.
